Experimental data reported in ChEMBL document CHEMBL1671744 (Antimicrob Agents Chemother, 2010).
Converted amounts (≈) assume the structure as drawn. Where a SMILES comes first, the peptide text is derived from it. [ ]: non-standard residue; d: D form. The star is where a group is joined. Nphe = O=C(O)CNCc1ccccc1; OBn = c1ccc(CO*)cc1

Columns and labels:
[1] = erythrocyte
Staphylococcus aureus = test: Antimicrobial activity against Staphylococcus aureus; format: functional
Escherichia coli = test: Antimicrobial activity against Escherichia coli; format: functional

Row | Compound | MHC [1] | MIC (Staphylococcus aureus) [µM] | MIC (Escherichia coli) [µM]
1 | CC[C@@H](C)[C@@H](NC(=O)[C@@H](C)NC(=O)[C@@H](CCCCN)NC(=O)[C@@H](CC(C)C)NC(=O)[C@@H](C)NC(=O)[C@H](NC(=O)[C@@H](Cc1c[nH]cn1)NC(=O)[C@@H](CC(C)C)NC(=O)[C@H](NC(=O)[C@H](NC(=O)[C@@H](CCCCN)NC(=O)[C@@H](CCCCN)NC(=O)[C@@H](C)NC(=O)[C@@H](CO)NC(=O)[C@@H](CCCCN)NC(=O)[C@@H](Cc1ccccc1)NC(=O)[C@H](NC(=O)[C@@H](CCCCN)NC(=O)[C@@H](CC(C)C)NC(=O)[C@@H](Cc1ccccc1)NC(=O)[C@@H](CO)NC(=O)[C@@H](CCCCN)NC(=O)[C@@H](Cc1c[nH]c2ccccc12)NC(=O)[C@@H](CCCCN)NC(C)=O)[C@H](C)O)[C@H](C)O)C(C)C)[C@H](C)O)C(=O)N[C@H](CO)C(=O)N[C@H](CO)C(N)=O | > 88.6 µM |  | 
2 | CC[C@H](C)[C@H](NC(=O)[C@H](CCCCN)NC(=O)[C@@H](NC(=O)[C@H](CCC(N)=O)NC(=O)[C@@H](N)CCCNC(=N)N)[C@@H](C)CC)C(=O)N[C@@H](Cc1c[nH]c2ccccc12)C(=O)N[C@@H](Cc1ccccc1)C(=O)N[C@@H](CCC(N)=O)C(=O)N[C@@H](CC(N)=O)C(=O)N[C@@H](CCCNC(=N)N)C(=O)N[C@@H](CCCNC(=N)N)C(=O)N[C@@H](CCSC)C(=O)N[C@@H](CCCCN)C(=O)N[C@@H](Cc1c[nH]c2ccccc12)C(=O)N[C@@H](CCCCN)C(=O)N[C@@H](CCCCN)C(=O)NCCCC[C@H](NC(=O)[C@H](CCCCN)NC(=O)[C@H](CCCCN)NC(=O)[C@H](Cc1c[nH]c2ccccc12)NC(=O)[C@H](CCCCN)NC(=O)[C@H](CCSC)NC(=O)[C@H](CCCNC(=N)N)NC(=O)[C@H](CCCNC(=N)N)NC(=O)[C@H](CC(N)=O)NC(=O)[C@H](CCC(N)=O)NC(=O)[C@H](Cc1ccccc1)NC(=O)[C@H](Cc1c[nH]c2ccccc12)NC(=O)[C@@H](NC(=O)[C@H](CCCCN)NC(=O)[C@@H](NC(=O)[C@H](CCC(N)=O)NC(=O)[C@@H](N)CCCNC(=N)N)[C@@H](C)CC)[C@@H](C)CC)C(N)=O | 25 µM | 1 (≈ 4.6 µg/mL) | 2 (≈ 9.21 µg/mL)
3 | CC[C@H](C)[C@H](NC(=O)[C@H](C)NC(=O)[C@H](CCCCN)NC(=O)[C@H](CC(C)C)NC(=O)[C@H](C)NC(=O)[C@H](CCCCN)NC(=O)[C@H](Cc1cnc[nH]1)NC(=O)[C@H](CC(C)C)NC(=O)[C@@H](NC(=O)[C@H](CCCCN)NC(=O)[C@H](CCCCN)NC(=O)[C@H](CCCCN)NC(=O)[C@H](C)NC(=O)[C@H](CO)NC(=O)[C@H](CCCCN)NC(=O)[C@H](Cc1ccccc1)NC(=O)[C@@H](NC(=O)[C@H](CCCCN)NC(=O)[C@H](CC(C)C)NC(=O)[C@H](Cc1ccccc1)NC(=O)[C@H](CO)NC(=O)[C@H](CCCCN)NC(=O)[C@H](Cc1c[nH]c2ccccc12)NC(=O)[C@H](CCCCN)NC(C)=O)[C@@H](C)O)C(C)C)C(=O)N[C@@H](CO)C(=O)N[C@@H](CO)C(N)=O (Ac-KWKSFLKTFKSAKKKVLHKALKAISS-NH2) | < 2.8 µM |  | 2.8 (≈ 8.53 µg/mL)
4 | CC[C@H](C)[C@H](NC(=O)[C@H](C)NC(=O)[C@H](CCCCN)NC(=O)[C@H](CC(C)C)NC(=O)[C@H](C)NC(=O)[C@@H](NC(=O)[C@H](Cc1c[nH]cn1)NC(=O)[C@H](CC(C)C)NC(=O)[C@@H](NC(=O)[C@@H](NC(=O)[C@H](CCCCN)NC(=O)[C@@H](NC(=O)[C@H](C)NC(=O)[C@H](CO)NC(=O)[C@H](CCCCN)NC(=O)[C@H](Cc1ccccc1)NC(=O)[C@@H](NC(=O)[C@H](CCCCN)NC(=O)[C@H](CC(C)C)NC(=O)[C@H](Cc1ccccc1)NC(=O)[C@H](CO)NC(=O)[C@H](CCCCN)NC(=O)[C@H](Cc1c[nH]c2ccccc12)NC(=O)[C@H](CCCCN)NC(C)=O)[C@@H](C)O)C(C)C)[C@@H](C)O)C(C)C)[C@@H](C)O)C(=O)N[C@@H](CO)C(=O)N[C@@H](CO)C(N)=O (Ac-KWKSFLKTFKSAVKTVLHTALKAISS-NH2) | 5.2 µM |  | 
5 | CC[C@H](C)[C@H](NC(=O)[C@H](C)NC(=O)[C@H](CCCCN)NC(=O)[C@H](CC(C)C)NC(=O)[C@H](C)NC(=O)[C@@H](NC(=O)[C@H](Cc1cnc[nH]1)NC(=O)[C@H](CC(C)C)NC(=O)[C@@H](NC(=O)[C@@H](NC(=O)[C@H](CCCCN)NC(=O)[C@@H](NC(=O)[C@H](C)NC(=O)[C@H](CO)NC(=O)[C@H](CCCCN)NC(=O)[C@H](Cc1ccccc1)NC(=O)[C@@H](NC(=O)[C@H](CCCCN)NC(=O)[C@H](CC(C)C)NC(=O)[C@H](Cc1ccccc1)NC(=O)[C@H](CO)NC(=O)[C@H](CCCCN)NC(=O)[C@H](Cc1c[nH]c2ccccc12)NC(=O)[C@H](CCCCN)NC(C)=O)[C@@H](C)O)C(C)C)[C@@H](C)O)C(C)C)[C@@H](C)O)C(=O)N[C@@H](CO)C(=O)N[C@@H](CO)C(N)=O (Ac-KWKSFLKTFKSAVKTVLHTALKAISS-NH2) |  |  | 2.1 (≈ 6.22 µg/mL)
6 | CC[C@H](C)[C@H](NC(=O)[C@H](CCCCN)NC(=O)[C@H](CC(C)C)NC(=O)[C@H](C)NC(=O)[C@@H](NC(=O)[C@H](Cc1cnc[nH]1)NC(=O)[C@H](CC(C)C)NC(=O)[C@@H](NC(=O)[C@@H](NC(=O)[C@H](CCCCN)NC(=O)[C@@H](NC(=O)[C@H](C)NC(=O)[C@H](CO)NC(=O)[C@H](CCCCN)NC(=O)[C@H](Cc1ccccc1)NC(=O)[C@@H](NC(=O)[C@H](CCCCN)NC(=O)[C@H](CC(C)C)NC(=O)[C@H](Cc1ccccc1)NC(=O)[C@H](CO)NC(=O)[C@H](CCCCN)NC(=O)[C@H](Cc1c[nH]c2ccccc12)NC(=O)[C@H](CCCCN)NC(C)=O)[C@@H](C)O)C(C)C)[C@@H](C)O)C(C)C)[C@@H](C)O)C(=O)N[C@@H](CO)C(=O)N[C@@H](CO)C(N)=O (Ac-KWKSFLKTFKSAVKTVLHTALKISS-NH2) | > 88.6 µM |  | 0.89 (≈ 2.57 µg/mL)
7 | CC[C@H](C)[C@H](NC(=O)[C@H](C)NC(=O)[C@H](CCCCN)NC(=O)[C@H](CC(C)C)NC(=O)[C@H](C)NC(=O)[C@@H](NC(=O)[C@H](Cc1c[nH]cn1)NC(=O)[C@H](CC(C)C)NC(=O)[C@@H](NC(=O)[C@@H](NC(=O)[C@H](CCCCN)NC(=O)[C@H](NC(=O)[C@H](C)NC(=O)[C@H](CO)NC(=O)[C@H](CCCCN)NC(=O)[C@H](Cc1ccccc1)NC(=O)[C@@H](NC(=O)[C@H](CCCCN)NC(=O)[C@H](CC(C)C)NC(=O)[C@H](Cc1ccccc1)NC(=O)[C@H](CO)NC(=O)[C@H](CCCCN)NC(=O)[C@H](Cc1c[nH]c2ccccc12)NC(=O)[C@H](CCCCN)NC(C)=O)[C@@H](C)O)C(C)C)[C@@H](C)O)C(C)C)[C@@H](C)O)C(=O)N[C@@H](CO)C(=O)N[C@@H](CO)C(N)=O (Ac-KWKSFLKTFKSA[dV]KTVLHTALKAISS-NH2) | 22.2 µM |  | 
8 | CC[C@H](C)[C@H](NC(=O)[C@H](C)NC(=O)[C@H](CCCCN)NC(=O)[C@H](CC(C)C)NC(=O)[C@H](C)NC(=O)[C@@H](NC(=O)[C@H](Cc1cnc[nH]1)NC(=O)[C@H](CC(C)C)NC(=O)[C@@H](NC(=O)[C@@H](NC(=O)[C@H](CCCCN)NC(=O)[C@H](NC(=O)[C@H](C)NC(=O)[C@H](CO)NC(=O)[C@H](CCCCN)NC(=O)[C@H](Cc1ccccc1)NC(=O)[C@@H](NC(=O)[C@H](CCCCN)NC(=O)[C@H](CC(C)C)NC(=O)[C@H](Cc1ccccc1)NC(=O)[C@H](CO)NC(=O)[C@H](CCCCN)NC(=O)[C@H](Cc1c[nH]c2ccccc12)NC(=O)[C@H](CCCCN)NC(C)=O)[C@@H](C)O)C(C)C)[C@@H](C)O)C(C)C)[C@@H](C)O)C(=O)N[C@@H](CO)C(=O)N[C@@H](CO)C(N)=O (Ac-KWKSFLKTFKSA[dV]KTVLHTALKAISS-NH2) |  |  | 1.1 (≈ 3.26 µg/mL)
9 | N=C(N)NCCC[C@H](NC(=O)[C@@H](N)Cc1c[nH]c2ccccc12)C(=O)N[C@@H](Cc1c[nH]c2ccccc12)C(N)=O (H-Trp-Arg-Trp-NH2) | > 500 µg/mL |  | 
10 | NC(=O)[C@H](Cc1c[nH]c2ccccc12)NC(=O)[C@H](CCCN=C(N)N)NC(=O)[C@@H](N)Cc1c[nH]c2ccccc12 (H-Trp-Arg-Trp-NH2) |  | 218 (≈ 119 µg/mL) | > 436
11 | N=C(N)NCCC[C@H](NC(=O)[C@@H](N)Cc1c[nH]c2ccccc12)C(=O)N[C@@H](Cc1c[nH]c2ccccc12)C(=O)OCc1ccccc1 (H-Trp-Arg-Trp-OBn) | > 500 µg/mL |  | 
12 | NC(N)=NCCC[C@H](NC(=O)[C@@H](N)Cc1c[nH]c2ccccc12)C(=O)N[C@@H](Cc1c[nH]c2ccccc12)C(=O)OCc1ccccc1 (H-Trp-Arg-Trp-OBn) |  | 9 (≈ 5.73 µg/mL) | 140 (≈ 89.1 µg/mL)
13 | CC[C@H](C)[C@H](NC(=O)CN)C(=O)NCC(=O)N[C@@H](C)C(=O)N[C@H](C(=O)N(CC(=O)N[C@@H](CCCCN)C(=O)N[C@H](C(=O)N[C@@H](CC(C)C)C(=O)N[C@H](C(=O)N[C@H](C(=O)NCC(=O)N(CC(=O)N1CCC[C@H]1C(=O)N[C@@H](C)C(=O)N[C@@H](CC(C)C)C(=O)N[C@H](C(=O)N[C@@H](CO)C(=O)N[C@@H](Cc1c[nH]c2ccccc12)C(=O)N(CC(=O)N[C@@H](CCCCN)C(=O)N[C@@H](CCCNC(=N)N)C(=O)N[C@@H](CCCCN)C(=O)N[C@@H](CCCNC(=N)N)C(=O)N[C@@H](CCC(N)=O)C(=O)N[C@@H](CCC(N)=O)C(=O)O)Cc1ccccc1)[C@@H](C)CC)Cc1ccccc1)[C@@H](C)O)[C@@H](C)O)C(C)C)Cc1ccccc1)C(C)C [MELITTIN PEPTOID F] (H-GIGAV[Nphe]KVLTTG[Nphe]PALISW[Nphe]KRKRQQ-OH) | > 100 µM | 2 (≈ 5.9 µg/mL) | 4 (≈ 11.8 µg/mL)
14 | CC[C@H](C)[C@H](NC(=O)CN)C(=O)NCC(=O)N[C@@H](C)C(=O)N[C@H](C(=O)N[C@@H](CC(C)C)C(=O)N[C@@H](CCCCN)C(=O)N[C@H](C(=O)N[C@@H](CC(C)C)C(=O)N[C@H](C(=O)N[C@H](C(=O)NCC(=O)N[C@@H](CC(C)C)C(=O)N1CCC[C@H]1C(=O)N[C@@H](C)C(=O)N[C@@H](CC(C)C)C(=O)N[C@H](C(=O)N[C@@H](CO)C(=O)N[C@@H](Cc1c[nH]c2ccccc12)C(=O)N[C@H](C(=O)N[C@@H](CCCCN)C(=O)N[C@@H](CCCNC(=N)N)C(=O)N[C@@H](CCCCN)C(=O)N[C@@H](CCCNC(=N)N)C(=O)N[C@@H](CCC(N)=O)C(=O)N[C@@H](CCC(N)=O)C(N)=O)[C@@H](C)CC)[C@@H](C)CC)[C@@H](C)O)[C@@H](C)O)C(C)C)C(C)C [MELITTIN] | 0.78 µM |  | 
15 | CC[C@H](C)[C@H](NC(=O)[C@H](CCCCN)NC(=O)[C@@H](NC(=O)[C@H](CCC(N)=O)NC(=O)[C@@H](N)CCCNC(=N)N)[C@@H](C)CC)C(=O)N[C@@H](Cc1c[nH]c2ccccc12)C(=O)N[C@@H](Cc1ccccc1)C(=O)N[C@@H](CCC(N)=O)C(=O)N[C@@H](CC(N)=O)C(=O)N[C@@H](CCCNC(=N)N)C(=O)N[C@@H](CCCNC(=N)N)C(=O)N[C@@H](CCSC)C(=O)N[C@@H](CCCCN)C(=O)N[C@@H](Cc1c[nH]c2ccccc12)C(=O)N[C@@H](CCCCN)C(=O)N[C@@H](CCCCN)C(N)=O [PENETRATIN] | > 200 µM | 1 (≈ 2.25 µg/mL) | 2 (≈ 4.49 µg/mL)
